Consider three compounds from patent US10729690B2, “Antihelminthic medications for pathogenic nematodes” (priority 2016, dated 2020).

Series [1] has as its system P. aeruginosa. The experiment in a line: In vitro P. aeruginosa growth assay in the absence of C. elegans. It counts as cell-based.
The subject of series [2] is C. elegans genome (immune and detoxification gene transcription). To be noted: previously observed; not dependent on p38 MAPK PMK-1 pathway; cited from earlier work.
For series [3], the system named is C. elegans. As to the kind of experiment: C. elegans brood size. In kind it is in vivo. To be noted: absence of pathogen. The source says:
(§1) In reports describing the anti-infective, immunostimulatory xenobiotic R24 it was noted that this compound was toxic to nematodes growing in the absence of pathogen. Pukkila-Worley et al., (2012). […] FIG. 4A. […] FIG. 4B.

The subject of series [4] is C. elegans. As to the kind of experiment: C. elegans survival in the absence of pathogen. In kind it is in vivo.
Excerpt: as §1

Series [5] has as its system P. aeruginosa infection of C. elegans. As to the kind of experiment: "Slow killing" P. aeruginosa infection (pathogenesis) assay in C. elegans. It counts as in vivo.
Series [6] relates to C. elegans genome (immune and detoxification gene transcription). As to the kind of experiment: Transcriptome profiles of wild-type nematodes (Affymetrix whole genome genechips). It counts as in vivo. Here is the method: The effects of R24 on C. elegans was further characterized by generating transcriptome profiles of wild-type nematodes following exposure to either 70 μM R24 or the solvent control DMSO using Affymetrix whole genome […] induced a remarkably robust transcriptional response that involved only a small fraction ( 1.3%) of the genes of the C. elegans genome. […] For example, seventy (70) of the two hundred sixty-nine (269) […]. aeruginosa using a previously described gene set. Troemel et al., (2006).

Series [7] relates to F08G5.6::GFP (p38 MAPK PMK-1 pathway-dependent immune effector reporter). As to the kind of experiment: F08G5.6::GFP immune transcriptional reporter in C. elegans. It counts as in vivo.
Series [8] deals with p38 MAPK PMK-1-dependent antimicrobial immune effectors. Particulars: nanoString codeset of 118 genes; previous study (Pukkila-Worley 2014); cited from earlier work.
Series [9] shares this test system. It counts as in vivo, C. elegans. Particulars: qRT-PCR. Background: Quantitative PCR measures a nucleic acid by following its amplification.
Series [10] has as its system nematodes. As to the kind of experiment: Nematode killing by UPR inducers combined with immunostimulatory molecules. In kind it is in vivo. The source says: In one embodiment, the present invention contemplates a method comprising administering small molecules having clinical antihelminthic efficacy by inducing an unfolded protein response (UPR) in endoplasmic reticulum. In one embodiment, the unfolded endoplasmic reticulum protein response is mediated by small molecules including, but not limited to, tunicamycin and bortezomib (Velcade®). […] See, FIG. 4C. Although it is not necessary to understand the mechanism of an invention, it is believed that components of the nematode UPR are strongly conserved and thus UPR inducers will have dose-limiting toxicity in mammals.
Nematocidal activity of different combinations of these molecules and known anti-helminthics (e.g. ivermectin and albendazole) can be tested to identify those that have synergistic activity. For example, antihelminthic efficacy of chemical inducers of the UPR (e.g. tunicamycin) can be used.

“Also recorded” adds a separate entry of the source.

Consider `Cc1ccc(Nc2nc(N)c3ccccc3n2)cc1Cl` [R24], for which, in [1], the “growth of P. aeruginosa in an in vitro assay” value was “lack of effect; also recorded: did not have any effect”. Also, the “induction of detoxification genes/enzymes (CYPs, GSTs, UDPs)” value in series [2] was “robust induction; also recorded: causes the induction”. Besides, the “brood sizes of nematodes exposed from the first larval stage” value in series [3] is “dramatically smaller”. Further, the C. elegans survival result in [4] is “dose dependent shortening”. In addition, the “ability of R24 to prolong lifespan of C. elegans with mutations in four other p38 MAP kinase pathway components” value in [5] (p38 MAP kinase pathway mutants, data not shown) is “dramatically attenuated”. The “R24-mediated lifespan prolongation of pmk-1(km25) null mutants infected with P. aeruginosa, compared to compound-treated wild-type” value in [5] (pmk-1(km25) null mutants, P<0.001) is given as “Lack of improved survivability; also recorded: significantly decreased”. Besides, in series [5] (wild-type C. elegans), the “C. elegans survival during P. aeruginosa bacterial infection” value is reported as “dose-dependent improvement; also recorded: Improved survivability; also recorded: protects”. Further, the “number of the 269 R24-induced genes activated during infection with P. aeruginosa” value in series [6] (70 μM R24, overlap P<2.7×10^−16) came out at 70 genes. Moreover, the “number of genes induced more than 50-fold” value in series [6] (70 μM R24 vs DMSO) is given as 125 genes. Besides, in [6] (70 μM R24 vs DMSO, P<0.025), the “number of genes upregulated three-fold or greater” value is 269 genes. For the same compound, the “fraction of the genes of the C. elegans genome involved in the transcriptional response” value in [6] (70 μM R24 vs solvent control DMSO, wild-type) was approximately 1.3%. Moreover, the “F08G5.6::GFP expression in nsy-1(ums8) mutant exposed to R24, compared to untreated nsy-1(ums8) animals” value in [7] (nsy-1(ums8) gain-of-function mutant, 70 μM R24 (FIG. 11B)) is on record as “markedly increased”. The “F08G5.6::GFP transgene expression” value in [7] (uninfected nematodes) is reported as “strongly induced”. The “number of codeset genes whose induction by R24 was dependent on the p38 MAPK PMK-1” value in series [8] was 13 genes. Besides, the “antimicrobial immune effectors induced by R24 in wild-type that pmk-1(km25) mutants failed to upregulate” value in series [9] is recorded as “six of ten”.

Turning to `CC(C)C[C@H](NC(=O)[C@H](Cc1ccccc1)NC(=O)c1cnccn1)B(O)O` [bortezomib], the “killing of nematodes in combination with immunostimulatory molecules” value in series [10] is recorded as “act synergistically”.

Consider tunicamycin, for which the “killing of nematodes in combination with immunostimulatory molecules” value in series [10] was “act synergistically”.
